# From PubChem BioAssay (NCI)
#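 Compound exposure: 48 hours, 5 concentrations, 96-well plates. TGI is the concentration that stops growth completely.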
# Key:
# Assay in all cases: NCI tumour cell line growth inhibition, 48 h
# [1] = system: UACC-62 melanoma
# [2] = system: SK-MEL-5 melanoma
# [3] = system: SK-MEL-28 melanoma
# [4] = system: SK-MEL-2 melanoma
# [5] = system: SNB-75 CNS
# [6] = system: MALME-3M melanoma
# [7] = system: NCI-H522 lung
# [8] = system: DMS 114 small cell lung
# [9] = system: OVCAR-4 ovarian
# [10] = system: SK-OV-3 ovarian
# [11] = system: U251 CNS
# [12] = system: M14 melanoma
# [13] = system: SF-295 CNS
# [14] = system: IGROV1 ovarian
# [15] = system: EKVX NSCLC
# [16] = system: RPMI-8226 leukemia
# [17] = system: SF-539 CNS
# [18] = system: CAKI-1 renal
# [19] = system: HT29 colon
# [20] = system: MOLT-4 leukemia
# [21] = system: XF 498 CNS
# [22] = system: NCI-H226 lung
# [23] = system: TK-10 renal
# [24] = system: SR leukemia
# [25] = system: NCI-H23 lung
# [26] = system: SN12C renal
# [27] = system: UACC-257 melanoma
# [28] = system: LOX IMVI melanoma
# [29] = system: COLO 205 colon
# [30] = system: HCC-2998 colon
# [31] = system: ACHN renal
# [32] = system: OVCAR-3 ovarian
# [33] = system: HL-60(TB) leukemia
# [34] = system: CCRF-CEM leukemia
# [35] = system: RXF-631 renal
# [36] = system: LXFL 529 NSCLC
# [37] = system: 786-0 renal
# [38] = system: HOP-18 NSCLC
# [39] = system: OVCAR-5 ovarian
# [40] = system: SNB-78 CNS
# [41] = system: KM12 colon
# [42] = system: SNB-19 CNS
# [43] = system: OVCAR-8 ovarian
# [44] = system: HOP-62 NSCLC
# [45] = system: DLD-1 colon
# [46] = system: HOP-92 NSCLC
# [47] = system: K-562 leukemia
# [48] = system: KM20L2 colon
# [49] = system: HCT-15 colon
# [50] = system: UO-31 renal
# [51] = system: DMS 273 small cell lung
# [52] = system: NCI-H460 lung
# [53] = system: SW-620 colon
# [54] = system: HCT-116 colon
# [55] = system: A549 NSCLC
# [56] = system: M19-MEL melanoma
# [57] = system: SF-268 CNS
# [58] = system: RXF 393 renal
# [59] = system: A498 renal
smiles,measurement,setting,value
COc1ccc2ccc3c(c2c1)CN1CCc2cc(OC)c(OC)cc2C1C3 (centres undefined),TGI,[1],> 100 µM
same,TGI,[2],> 100 µM
same,TGI,[3],> 100 µM
same,TGI,[4],> 100 µM
same,TGI,[5],96.8 µM
same,TGI,[6],> 100 µM
same,TGI,[7],> 100 µM
same,TGI,[8],> 100 µM
same,TGI,[9],> 100 µM
same,TGI,[10],> 100 µM
same,TGI,[11],> 100 µM
same,TGI,[12],> 100 µM
same,TGI,[13],> 100 µM
same,TGI,[14],> 100 µM
same,TGI,[15],> 100 µM
same,TGI,[16],> 100 µM
same,TGI,[17],> 100 µM
same,TGI,[18],> 100 µM
same,TGI,[19],> 100 µM
same,TGI,[20],> 100 µM
same,TGI,[21],> 100 µM
same,TGI,[22],> 100 µM
same,TGI,[23],> 100 µM
same,TGI,[24],> 100 µM
same,TGI,[25],> 100 µM
same,TGI,[26],> 100 µM
same,TGI,[27],> 100 µM
same,TGI,[28],> 100 µM
same,TGI,[29],> 100 µM
same,TGI,[30],> 100 µM
same,TGI,[31],> 100 µM
same,TGI,[32],> 100 µM
same,TGI,[33],> 100 µM
same,TGI,[34],> 100 µM
same,TGI,[35],> 100 µM
same,TGI,[36],> 100 µM
same,TGI,[37],> 100 µM
same,TGI,[38],> 100 µM
same,TGI,[39],> 100 µM
same,TGI,[40],> 100 µM
same,TGI,[41],> 100 µM
same,TGI,[42],> 100 µM
same,TGI,[43],> 100 µM
same,TGI,[44],> 100 µM
same,TGI,[45],> 100 µM
same,TGI,[46],> 100 µM
same,TGI,[47],> 100 µM
same,TGI,[48],> 100 µM
same,TGI,[49],> 100 µM
same,TGI,[50],> 100 µM
same,TGI,[51],> 100 µM
same,TGI,[52],> 100 µM
same,TGI,[53],> 100 µM
N#CC1(Cc2ccc(N)cc2)c2ccccc2C=CN1C(=O)c1ccccc1 (centres undefined),TGI,[1],> 100 µM
same,TGI,[2],47.2 µM
same,TGI,[3],> 100 µM
same,TGI,[4],> 100 µM
same,TGI,[5],> 100 µM
same,TGI,[6],> 100 µM
same,TGI,[7],> 100 µM
same,TGI,[8],> 100 µM
same,TGI,[10],> 100 µM
same,TGI,[11],> 100 µM
same,TGI,[12],> 100 µM
same,TGI,[13],> 100 µM
same,TGI,[14],> 100 µM
same,TGI,[15],> 100 µM
same,TGI,[16],> 100 µM
same,TGI,[17],> 100 µM
same,TGI,[54],> 100 µM
same,TGI,[55],> 100 µM
same,TGI,[19],> 100 µM
same,TGI,[20],> 100 µM
same,TGI,[21],> 100 µM
same,TGI,[22],> 100 µM
same,TGI,[23],> 100 µM
same,TGI,[56],> 100 µM
same,TGI,[24],94.3 µM
same,TGI,[25],> 100 µM
same,TGI,[26],> 100 µM
same,TGI,[27],> 100 µM
same,TGI,[28],> 100 µM
same,TGI,[57],> 100 µM
same,TGI,[29],85.7 µM
same,TGI,[30],> 100 µM
same,TGI,[31],> 100 µM
same,TGI,[32],> 100 µM
same,TGI,[33],44 µM
same,TGI,[58],> 100 µM
same,TGI,[34],> 100 µM
same,TGI,[59],> 100 µM
same,TGI,[36],> 100 µM
same,TGI,[37],> 100 µM
same,TGI,[38],> 100 µM
same,TGI,[39],> 100 µM
same,TGI,[40],> 100 µM
same,TGI,[41],> 100 µM
same,TGI,[42],> 100 µM
same,TGI,[43],> 100 µM
same,TGI,[44],> 100 µM
same,TGI,[45],> 100 µM
same,TGI,[46],> 100 µM
same,TGI,[47],> 100 µM
same,TGI,[48],> 100 µM
same,TGI,[50],84.2 µM
same,TGI,[51],> 100 µM
same,TGI,[53],> 100 µM
COC(=O)C(=O)C(C(=O)C=C(C)C)C(=O)C(=O)Nc1cc(C(F)(F)F)ccc1Cl (centres undefined),TGI,[1],> 100 µM
same,TGI,[2],> 100 µM
same,TGI,[3],> 100 µM
same,TGI,[4],> 100 µM
same,TGI,[5],> 100 µM
same,TGI,[6],> 100 µM
same,TGI,[7],> 100 µM
same,TGI,[8],> 100 µM
same,TGI,[9],> 100 µM
same,TGI,[10],> 100 µM
same,TGI,[11],> 100 µM
same,TGI,[12],> 100 µM
same,TGI,[13],> 100 µM
same,TGI,[14],> 100 µM
same,TGI,[15],> 100 µM
same,TGI,[16],67 µM
same,TGI,[17],> 100 µM
same,TGI,[54],> 100 µM
same,TGI,[18],> 100 µM
same,TGI,[55],> 100 µM
same,TGI,[19],> 100 µM
same,TGI,[20],> 100 µM
same,TGI,[21],> 100 µM
same,TGI,[22],> 100 µM
same,TGI,[23],> 100 µM
same,TGI,[24],39.9 µM
same,TGI,[25],> 100 µM
same,TGI,[26],> 100 µM
same,TGI,[27],> 100 µM
same,TGI,[28],> 100 µM
same,TGI,[57],> 100 µM
same,TGI,[29],> 100 µM
same,TGI,[30],> 100 µM
same,TGI,[31],> 100 µM
same,TGI,[32],> 100 µM
same,TGI,[33],> 100 µM
same,TGI,[58],> 100 µM
same,TGI,[34],71.2 µM
same,TGI,[59],> 100 µM
same,TGI,[35],> 100 µM
same,TGI,[36],> 100 µM
same,TGI,[37],> 100 µM
same,TGI,[38],> 100 µM
same,TGI,[39],> 100 µM
same,TGI,[40],> 100 µM
same,TGI,[41],> 100 µM
same,TGI,[42],> 100 µM
same,TGI,[43],> 100 µM
same,TGI,[44],> 100 µM
same,TGI,[45],> 100 µM
same,TGI,[46],> 100 µM
same,TGI,[47],> 100 µM
same,TGI,[48],> 100 µM
same,TGI,[49],> 100 µM
same,TGI,[50],> 100 µM
same,TGI,[51],> 100 µM
same,TGI,[52],> 100 µM
